Assay [1] deals with PAF. In words: PAF-Induced Guinea Pig Bronchoconstriction Test. The class given is in vivo, guinea pig (Hartley). The settings on record: 1.0 mg/kg i.v., 1 min pretreatment. How it is done: Male guinea pigs (Hartley strain) weighing 300 to 500 g are anesthetized with urethane (2 g/kg) intraperitoneally and a polyethylene cannula is inserted into the jugular vein for drug administration. Tracheal pressure is recorded from a cannula inserted in the trachea and connected to a Statham pressure transducer. Propranolol (0.1 mg/kg) is administered intravenously five minutes before challenge with synthetic PAF, the animals's skeletal muscles are then paralyzed with succinylcholine (1.2 mg/kg i.v.), and the animal is respirated using a Harvard small animal respirator operating at 40 breaths/min and 2.5 cc stroke volume. Under these conditions PAF induces a dose-dependent increase in ventilatory pressure over a dose range of 0.5 to 5 pg/kg i.v. The bronchoconstrictive effect of PAF occurs at approximately a 10-fold lower dose than that obtained with LTE. For screening purposes animals are challenged with a single dose of PAF (10 pg/kg i.v.).
Test compounds are screened by either the intravenous route (1.0 mg/kg i.v., 1 min pretreatment) or oral route (100 mg/kg p.o., 2 hour pretreatment). The peak increase in ventilatory pressure (cm H2 O) is recorded for three control animals and five drug-treated animals and the percent inhibition determined.

Assay [2] has as its system LTD4. Briefly: Leukotriene D4 (LTD4) Induced Arrhythmia Test. The class given is in vivo, guinea pig (Hartley). The settings on record: 10 mg/kg i.v. 5 min. before LTD4; conscious guinea pigs. The protocol: Male Hartley guinea pigs are anesthetized with sodium pentobarbital and prepared for monitoring direct blood pressure and injecting drugs intravenously by catheterizing the right carotid artery and right jugular vein. Blood pressure, heart rate, and Lead II ECG are monitored in the conscious animal 24 hours later.
Intravenous administration of LTD4 (2.5 pg/kg) is associated with an increase in blood pressure lasting approximately 1-2 minutes followed by a decrease lasting approximately 5-15 minutes (FIG. 3). Abnormal beats consisting of premature ventricular contractions, ST elevation or depression, atrioventricular conduction block, or dissociated p waves begin during the rise in blood pressure; the peak effect occurs approximately 40 seconds after LTD4. The percent of abnormal beats was quantitated by determining the number present during the first 2 minutes after injection and calculating the percent increase above the control level. During the hypotensive response, the animal usually collapses during the 2nd or 3rd minute after LTD4.

Structures are written as SMILES.

In the case of `CCCc1c(OCc2cccc(C(=O)NCCCCc3cccnc3)c2OCC)ccc(C(C)=O)c1O` [Example 36, 3-[(4-Acetyl-3-hydroxy-2-propylphenoxy)-methyl]-2-ethoxy-[4-(3-pyridinyl)butyl]benzamide], the “inhibition of PAF-induced bronchoconstriction” value in assay [1] was found to be 96±2%.

In the case of `CCCc1c(OCc2ccc(C(=O)NCCCCc3cccnc3)c(OCC)c2)ccc(C(C)=O)c1O` [Example 37, 4-[(4-Acetyl-3-hydroxy-2-propylphenoxy)-methyl]-2-ethoxy-N-[4-(3-pyridinyl)butyl]benzamide], the “inhibition of PAF-induced bronchoconstriction” value in assay [1] turned out to be 96±1%.

For `CCCc1c(OCCCCCC(=O)NCCCCc2cncnc2)ccc(C(C)=O)c1O` [drawing 41], in assay [2], the “Arrhy's (R/T)” value was 1/3, the “decrease in blood pressure (.dwnarw.XABP)” value is -44 ± 5 Δmm Hg and the “increase in blood pressure (.uparw.XABP)” value was 32 ± 2 Δmm Hg.

`CCCc1c(OCC#CCCCC(=O)NCCCCc2cccnc2)ccc(C(C)=O)c1O` [drawing 42]: in assay [2], the “Arrhy's (R/T)” value is reported as 1/3, the “decrease in blood pressure (.dwnarw.XABP)” value is reported as -44.5 Δmm Hg and the “increase in blood pressure (.uparw.XABP)” value is reported as 18 ± 4 Δmm Hg.

Values taken from patent US4672066A, “Derivatives of 4-acetyl-3-hydroxy-2-alkyl-phenoxycarboxylic acids” (Hoffmann-La Roche Inc., priority 1985, dated 1987).
